Entries after “also recorded” stand apart in the source; their conditions may differ.
Key:
RNF4 = target: T1, RNF4 (Homo sapiens, UniProt P78317); assay: In vitro ubiquitination assay, RNF4 ubiquitin ligase kit; type: biochemical
T1 construct: purchased Boston Biochem
Experimental: For analysis of cIAP1, MDM2, TRIM63, RNF4, ITCH and E6AP mediated poly-ubiquitination, the respective ubiquitin ligase kit from Boston Biochem (K-102, K-260, K-200B, K-220, K-240 and K-270) was used. Here, reaction buffer, E1, E2 and E3 enzyme (and p53 substrate in case of MDM2) were mixed and pre-incubated with compound or DMSO for 5 minutes at room temperature before adding Mg^2+-ATP and mono-ubiquitin for reaction start. Ubiquitination was visualized by Western Blot analyses.

[1] = target: T2, Interaction of Ubc13 with Uev1a (Homo sapiens, UniProt P61088+Q13404); assay: Ubc13-Uev1a interaction (FIG. 2E); type: binding
T2 construct: GST (N); His; made in house
T2 sequence (P61088 with tags, fused parts or gaps): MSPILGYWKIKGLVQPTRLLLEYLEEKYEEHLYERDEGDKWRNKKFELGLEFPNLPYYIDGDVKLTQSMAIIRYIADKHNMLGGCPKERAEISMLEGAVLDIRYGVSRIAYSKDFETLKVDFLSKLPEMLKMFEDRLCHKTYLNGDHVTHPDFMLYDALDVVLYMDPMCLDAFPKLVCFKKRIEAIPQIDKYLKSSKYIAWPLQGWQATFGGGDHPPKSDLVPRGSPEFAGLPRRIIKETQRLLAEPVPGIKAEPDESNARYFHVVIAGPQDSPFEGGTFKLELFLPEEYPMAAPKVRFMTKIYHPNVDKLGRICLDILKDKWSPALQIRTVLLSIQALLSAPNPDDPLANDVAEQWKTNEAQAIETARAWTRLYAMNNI
T2 sequence (Q13404 with tags, fused parts or gaps isoform Q13404-7): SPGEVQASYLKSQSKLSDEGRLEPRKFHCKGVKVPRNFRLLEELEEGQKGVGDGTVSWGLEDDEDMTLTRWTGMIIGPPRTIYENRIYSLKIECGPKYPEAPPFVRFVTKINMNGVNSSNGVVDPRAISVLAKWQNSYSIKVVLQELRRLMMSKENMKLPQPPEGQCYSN

[2] = test system: NF-κB activation in Jurkat T-cells; assay: EMSA for NF-κB activation in Jurkat T-cells; type: cell-based, human; settings: PMA/Ionomycin
Experimental: For compound treatment, MEF cells were seeded in 6 well plates at 1.2×10^5 cells/well the day before treatment. Jurkat T-cells were seeded directly before treatment at 2×10^5 cells/sample. Six hours after compound or DMSO treatment cells were stimulated as indicated. Thereby, MEF cells were left untreated or stimulated with recombinant mouse IL-1β (1 ng/mL) or TNFα (10 ng/mL) for 20 minutes. Jurkat T-cells were stimulated with Phorbol-12-myristat-13-acetet (PMA) (400 ng/mL) and lonomycin (600 ng/mL) for 30 minutes. Eventually, cells were lysed in high-salt lysis buffer (20 mM HEPES pH 7.9; 350 mM NaCl; 1 mM MgCl2; 0.5 mM EDTA; 0.1 mM EGTA; 20% Glycerol; 1% NP-40; 10 mM NaF; 8 mM β-Glycerophosphate; 1 mM DTT; 300 μM Sodium-vanadate; complete protease inhibitor) and analyzed in EMSA assays using H2K (NF-κB) or Oct-1 (loading control) probes.

[3] = ADME: plasma protein binding; type: in vitro ADME
Experimental: (§1) All ADME (plasma stability, plasma protein binding, microsomal stability, Log D, Caco-2 assay, CYP450 inhibition and hERG predictor assay) as well as pharmacokinetic studies (Tmax, Cmax, AUC0-240min, Mean Residence Time, Elimination half life, Elimination rate constant, Volume of Distribution and Clearance) of C25-140 (compound 3) were conducted by Bienta Enamine Biology Services of Bienta/Enamine Ltd.

[4] = test system: NF-κB target genes ICAM-1 and A20 in MEF cells; assay: mRNA expression (qRT-PCR) in MEF cells; type: cell-based, mouse
Experimental: For MEF cells, 1.2×10^5 cells per sample were seeded, treated with compound for 6 hours and stimulated with either IL-1β or TNFα for 60 minutes. Jurkat T-cells and primary mouse CD4^+ T-cells were seeded at 2×10^5 cells per sample, also treated with compound for 6 hours and stimulated with PMA/lonomycin for 3 hours. RNA was isolated according to the manufacturer's protocol of the Qiagen RNeasy Kit (MEF cells) or the STRATEC INVITRAP® SPIN UNIVERSAL RNA MINI KIT (Jurkat T-cells). The isolation of mRNA from […] white adipose tissue from DIO mice was performed using TRIzol® Reagent according to manufacturer's instruction. To clear the isolated RNA from genomic DNA, samples (up to 5 μg RNA) were treated with RQ1 RNase-Free DNaseI (Promega) as described in the technical manual. For the reverse transcription of RNA into cDNA, the DNaseI digested RNA samples were processed using the SuperScript III First Strand cDNA Synthesis System (Invitrogen/ThermoFisher Scientific) following the manufacturer's protocol. […] For quantification of cDNA in the samples, the LightCylcer480 (Roche) and the KAPA SYBR FAST qPCR Kit were used. For relative quantification, the ΔΔCp method first described by Pfaffl (Pfaffl, M. W., A new mathematical model for relative quantification in real-time RT-PCR. Nucleic Acids Res, 2001. 29(9): p. e45) was applied.

TRAF6 RZ1 protein = target: T3, TRAF6 RZ1 protein (Homo sapiens, UniProt Q9Y4K3); assay: Two-dimensional NMR (SOFAST-HMQC) binding experiment; settings: protein:compound 1:5
T3 construct: GST (N, cleaved yes); made in house; host or cells: E. coli BL21 codon plus RIPL, M9 medium with 15NH4
T3 sequence (Q9Y4K3 with tags, fused parts or gaps): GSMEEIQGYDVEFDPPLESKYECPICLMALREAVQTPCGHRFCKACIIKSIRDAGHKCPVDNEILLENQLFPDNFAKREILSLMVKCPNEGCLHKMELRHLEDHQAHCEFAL
Experimental: To determine whether the inhibitory compounds directly bind to TRAF6 rather than to Ubc13, 2D-NMR experiments were conducted. Untagged ^15N-labeled TRAF6 RZ1 protein (c=120 μM) and compound (c=20 mM) were incubated at a ratio of 1:5 in a 3 mm NMR tube for 10 minutes before spectra acquisition. To observe chemical shift perturbations upon compound addition, two-dimensional SOFAST-HMQC spectra were acquired. All measurements were performed using the Bruker Avance 600 MHz spectrometer.

[5] = test system: IMQ-induced psoriasis in Balb/C mice; assay: Imiquimod (IMQ)-induced psoriasis mouse model; type: in vivo
Experimental: To evaluate the anti-inflammatory activity of the compound C25-140 (compound 3), an Imiquimod (IMQ)-induced psoriasis mouse model was conducted by Washington Biotechnology, Inc. (Baltimore, USA). Per group, 8 male Balb/C mice were shaved in the back (1.5 cm×2 cm) and IMQ and C25-140 were applied topically to the shaved back and the right ear daily for 6 days. Thereby, C25-140 was dissolved in acetone and applied at a total dosage of 500 μg per day (2×250 μg). Mice were monitored and daily scores (erythema, scaling and thickness of back skin) were independently collected on a scale from 0 to 4: 0=none; 1=slight; 2=moderate; 3=marked and 4=very marked. Ear thickness was measured by electronic calipers as an indicator of edema. IL-17 cytokine secretion of the right ear tissue was measured by ELISA.

[6] = Pharmacokinetic studies (IV, PO, IP); type: in vivo
Experimental: as §1
The inventors also tested the pharmacokinetics (PK) of C25-140 after intravenous (IV), peroral (PO) and intraperitoneal (IP) injection of each 10 mg/kg compound. All the analyzed data are summarized in FIG. 9B and the concentration/time-course graph for IP administration is shown in FIG. 9C.

[7] = topical, 2x250 μg per day, 6 days
[8] = topical, 2x250 μg per day, 6 days, listed as 25-140

T1 sequence (P78317 whole entry): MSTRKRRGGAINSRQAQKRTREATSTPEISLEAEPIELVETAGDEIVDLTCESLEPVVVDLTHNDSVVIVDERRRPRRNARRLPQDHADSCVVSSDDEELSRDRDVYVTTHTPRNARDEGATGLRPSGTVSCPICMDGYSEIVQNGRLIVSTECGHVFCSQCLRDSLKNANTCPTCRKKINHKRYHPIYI

For Cc1nn(-c2ccc3nnc(C)n3n2)c(C)c1CCC(=O)N1CCC(Cc2ccccc2)CC1 [Example C25-140, 1-(4-Benzylpiperidin-1-yl)-3-(3,5-dimethyl-1-(3-methyl-[1,2,4]-triazolo-[4,3-b]-pyridazin-6-yl)-1H-pyrazol-4-yl)-propan-1-one], the RNF4 auto-ubiquitination (RNF4) was “not influenced; also recorded: not affected”, the “interaction of Ubc13 with Uev1a” value [1] was “did not affect binding; also recorded: not affected” and the NF-κB activation [2] was “reduced; also recorded: attenuated NF-κB activation”. The plasma protein binding [3] was “decent good plasma protein binding capacity”, the “mRNA expression of target genes (ICAM-1 and A20)” value ([4]; IL-1β stimulation) was “diminished target gene expression; also recorded: impaired” and the “mRNA expression of target genes (ICAM-1 and A20)” value ([4]; TNFα stimulation) was “also affects”. For the same compound, the “direct binding to TRAF6 RZ1 protein (shifting or disappearing of NMR peaks)” value (TRAF6 RZ1 protein) was “directly binds to the TRAF6 protein”, the “psoriasis symptoms / disease outcome (in words)” value ([5]; IMQ-induced psoriasis) was “ameliorates disease outcomes; also recorded: ameliorates symptoms” and the “IL-17 cytokine in right ear tissue” value ([5]; day 6, ELISA) was “significantly reduced; also recorded: decreased”. For the same compound, the cumulative score [5, 7] was “reduces”, the ear thickness [5, 7] was “significantly reduced” and the “erythema score of the back” value [5, 7] was “improvement of the disease symptoms”. For the same compound, the scaling score [5, 7] was “improvement of the disease symptoms”, the “thickness score of the back” value [5, 7] was “significantly reduce” and the cumulative score [5, 8] was “significantly reduce”. For the same compound, the ear thickness [5, 8] was “improvement of the disease symptoms”, the “adverse effects on animals during the PK studies” value ([6]; 10 mg/kg IV, PO, IP) was “no obvious adverse effects” and the “in vivo half life (in words)” value ([6]; IV, PO, IP) was “moderate in vivo half life”. For the same compound, the “initial distribution phase (in words)” value ([6]; IV, PO, IP) was “rapid initial distribution phase” and the “bioavailability (in words)” value ([6]; in vivo) was “good bioavailability”.

From US12240854B2, “TRAF 6 inhibitors” (Helmholtz Zentrum München - Deutsches Forschungszentrum für …, priority 2018, dated 2025)
